Columns and labels:
porcine trypsin = system: T1, porcine trypsin; assay: Insulin digestion by trypsin in solution, buffer screening (Table 9); type: biochemical; details: 37°C, 18 h
T1 construct: purchased

trypsin = assay: Insulin digestion in immobilized enzyme reactor, buffer screening (Table 7); type: biochemical, porcine; details: IMER, 70°C, 60 s

For `CC#N` [ACN, acetonitrile], the Digested (porcine trypsin; 5%) was 1409360, the Peptide (porcine trypsin; 5%) was 625535 and the Undigested (porcine trypsin; 5%) was 5143004. It also gave a Digested (porcine trypsin; 10%) of 1676314, a Peptide (porcine trypsin; 10%) of 692364 and an Undigested (porcine trypsin; 10%) of 4742266. It also gave a Digested (porcine trypsin; 15%) of 1925305, a Peptide (porcine trypsin; 15%) of 779339 and an Undigested (porcine trypsin; 15%) of 2715010. For the same compound, the Digested (porcine trypsin; 20%) was 2507679, the Peptide (porcine trypsin; 20%) was 1020020 and the Undigested (porcine trypsin; 20%) was 3445401. The Digested (trypsin; 5%) was 1344796, the Peptide (trypsin; 5%) was 568057 and the Undigested (trypsin; 5%) was 3327305. It also gave a Digested (trypsin; 10%) of 719966, a Peptide (trypsin; 10%) of 309638 and an Undigested (trypsin; 10%) of 4860471. It also gave a Digested (trypsin; 15%) of 292205, a Peptide (trypsin; 15%) of 116402 and an Undigested (trypsin; 15%) of 5326017. The Digested (trypsin; 20%) was 194140, the Peptide (trypsin; 20%) was 86754 and the Undigested (trypsin; 20%) was 6433237.
Work on `C[S+](C)[O-]` [DMSO, dimethylsulfoxide] yielded a Digested (porcine trypsin; 5%) of 1193067, a Peptide (porcine trypsin; 5%) of 499051 and an Undigested (porcine trypsin; 5%) of 3219771. The Digested (porcine trypsin; 10%) was 1185116, the Peptide (porcine trypsin; 10%) was 442885 and the Undigested (porcine trypsin; 10%) was 3803031. The Digested (porcine trypsin; 15%) was 1233021, the Peptide (porcine trypsin; 15%) was 481657 and the Undigested (porcine trypsin; 15%) was 4423224. It also gave a Digested (porcine trypsin; 20%) of 1215388, a Peptide (porcine trypsin; 20%) of 467559 and an Undigested (porcine trypsin; 20%) of 4523186. The Digested (trypsin; 5%) was 1804007, the Peptide (trypsin; 5%) was 719810 and the Undigested (trypsin; 5%) was 2280353. It also gave a Digested (trypsin; 10%) of 1483343, a Peptide (trypsin; 10%) of 618353 and an Undigested (trypsin; 10%) of 2811668. It also gave a Digested (trypsin; 15%) of 1058609, a Peptide (trypsin; 15%) of 437967 and an Undigested (trypsin; 15%) of 3394971. For the same compound, the Digested (trypsin; 20%) was 722730, the Peptide (trypsin; 20%) was 296540 and the Undigested (trypsin; 20%) was 3631216.
`O=S(=O)(O)CCN1CCN(CCO)CC1` [HEPES] gave a Digested (porcine trypsin; 50 mM) of 1758816, a Peptide (porcine trypsin; 50 mM) of 758959 and an Undigested (porcine trypsin; 50 mM) of 2816170. It also gave a Digested (trypsin; 50 mM) of 2438065, a Peptide (trypsin; 50 mM) of 1040553 and an Undigested (trypsin; 50 mM) of 1152957.
For `CC(C)O` [IPA, isopropyl alcohol], the Digested (porcine trypsin; 5%) was 1024085, the Peptide (porcine trypsin; 5%) was 407876 and the Undigested (porcine trypsin; 5%) was 3528233. For the same compound, the Digested (porcine trypsin; 10%) was 1133300, the Peptide (porcine trypsin; 10%) was 418703 and the Undigested (porcine trypsin; 10%) was 3935383. It also gave a Digested (porcine trypsin; 15%) of 906822, a Peptide (porcine trypsin; 15%) of 322103 and an Undigested (porcine trypsin; 15%) of 4509078. For the same compound, the Digested (porcine trypsin; 20%) was 954036, the Peptide (porcine trypsin; 20%) was 347874 and the Undigested (porcine trypsin; 20%) was 4992140. For the same compound, the Digested (trypsin; 5%) was 696091, the Peptide (trypsin; 5%) was 291902 and the Undigested (trypsin; 5%) was 4427643. It also gave a Digested (trypsin; 10%) of 208098, a Peptide (trypsin; 10%) of 86945 and an Undigested (trypsin; 10%) of 5774155. For the same compound, the Digested (trypsin; 15%) was 126129, the Peptide (trypsin; 15%) was 52332 and the Undigested (trypsin; 15%) was 5930073. For the same compound, the Digested (trypsin; 20%) was 135325, the Peptide (trypsin; 20%) was 55155 and the Undigested (trypsin; 20%) was 5148164.
`CO` [MeOH, methanol] was tested, and the Digested (porcine trypsin; 5%) was 1415794, the Peptide (porcine trypsin; 5%) was 576911 and the Undigested (porcine trypsin; 5%) was 5318134. The Digested (porcine trypsin; 10%) was 216568, the Peptide (porcine trypsin; 10%) was 88569 and the Undigested (porcine trypsin; 10%) was 4800365. It also gave a Digested (porcine trypsin; 15%) of 1700395, a Peptide (porcine trypsin; 15%) of 666807 and an Undigested (porcine trypsin; 15%) of 4218905. The Digested (porcine trypsin; 20%) was 1986863, the Peptide (porcine trypsin; 20%) was 756073 and the Undigested (porcine trypsin; 20%) was 3394642. For the same compound, the Digested (trypsin; 5%) was 1511720, the Peptide (trypsin; 5%) was 627591 and the Undigested (trypsin; 5%) was 2902781. The Digested (trypsin; 10%) was 1001203, the Peptide (trypsin; 10%) was 417070 and the Undigested (trypsin; 10%) was 3946896. It also gave a Digested (trypsin; 15%) of 675569, a Peptide (trypsin; 15%) of 277958 and an Undigested (trypsin; 15%) of 5012221. For the same compound, the Digested (trypsin; 20%) was 518131, the Peptide (trypsin; 20%) was 213935 and the Undigested (trypsin; 20%) was 5268985.
`[Cl-].[Na+]` [NaCl] showed a Digested (porcine trypsin; 0.1M) of 1527956, a Peptide (porcine trypsin; 0.1M) of 648564 and an Undigested (porcine trypsin; 0.1M) of 3295178. For the same compound, the Digested (porcine trypsin; 0.25M) was 1178089, the Peptide (porcine trypsin; 0.25M) was 484049 and the Undigested (porcine trypsin; 0.25M) was 3432057. The Digested (porcine trypsin; 0.5M) was 884946, the Peptide (porcine trypsin; 0.5M) was 350436 and the Undigested (porcine trypsin; 0.5M) was 4517343. The Digested (porcine trypsin; 1M) was 670170, the Peptide (porcine trypsin; 1M) was 249834 and the Undigested (porcine trypsin; 1M) was 4981512. For the same compound, the Digested (porcine trypsin; 2M) was 378641, the Peptide (porcine trypsin; 2M) was 111600 and the Undigested (porcine trypsin; 2M) was 4745627. The Digested (trypsin; 0.1M) was 2262987, the Peptide (trypsin; 0.1M) was 925368 and the Undigested (trypsin; 0.1M) was 1557233. For the same compound, the Digested (trypsin; 0.25M) was 2119184, the Peptide (trypsin; 0.25M) was 866812 and the Undigested (trypsin; 0.25M) was 2102900. The Digested (trypsin; 0.5M) was 2146822, the Peptide (trypsin; 0.5M) was 862093 and the Undigested (trypsin; 0.5M) was 1679944. It also gave a Digested (trypsin; 1M) of 2363025, a Peptide (trypsin; 1M) of 944511 and an Undigested (trypsin; 1M) of 1205692. For the same compound, the Digested (trypsin; 2M) was 2660004, the Peptide (trypsin; 2M) was 966823 and the Undigested (trypsin; 2M) was 332026.
With `C[C@H](CCC(=O)[O-])[C@H]1CC[C@H]2[C@@H]3CC[C@@H]4C[C@H](O)CC[C@]4(C)[C@H]3C[C@H](O)[C@]12C.[Na+]` [SDC, sodium deoxycholate] the Digested (porcine trypsin; 0.1%) was 1284656, the Peptide (porcine trypsin; 0.1%) was 5961 and the Undigested (porcine trypsin; 0.1%) was 3123245. For the same compound, the Digested (porcine trypsin; 0.2%) was 12332, the Peptide (porcine trypsin; 0.2%) was 480241 and the Undigested (porcine trypsin; 0.2%) was 29962. For the same compound, the Digested (porcine trypsin; 0.5%) was 114517, the Peptide (porcine trypsin; 0.5%) was 361200 and the Undigested (porcine trypsin; 0.5%) was 499326. For the same compound, the Digested (porcine trypsin; 1%) was 124131, the Peptide (porcine trypsin; 1%) was 239833 and the Undigested (porcine trypsin; 1%) was 1149062. It also gave a Digested (trypsin; 0.1%) of 296346, a Peptide (trypsin; 0.1%) of 101770 and an Undigested (trypsin; 0.1%) of 4216641. It also gave a Digested (trypsin; 0.2%) of 94589, a Peptide (trypsin; 0.2%) of 30902 and an Undigested (trypsin; 0.2%) of 5010947. It also gave a Digested (trypsin; 0.5%) of 12088, a Peptide (trypsin; 0.5%) of 1351 and an Undigested (trypsin; 0.5%) of 1648635. It also gave a Digested (trypsin; 1%) of 8134, a Peptide (trypsin; 1%) of 1275 and an Undigested (trypsin; 1%) of 284843.
Compound `OCC(F)(F)F` [TFE] has a Digested (porcine trypsin; 5%) of 710737, a Peptide (porcine trypsin; 5%) of 271046 and an Undigested (porcine trypsin; 5%) of 4417966. The Digested (porcine trypsin; 10%) was 512715, the Peptide (porcine trypsin; 10%) was 201962 and the Undigested (porcine trypsin; 10%) was 4499811. The Digested (porcine trypsin; 15%) was 571716, the Peptide (porcine trypsin; 15%) was 224520 and the Undigested (porcine trypsin; 15%) was 4785656. It also gave a Digested (porcine trypsin; 20%) of 661078, a Peptide (porcine trypsin; 20%) of 253234 and an Undigested (porcine trypsin; 20%) of 4907160. The Digested (trypsin; 5%) was 513982, the Peptide (trypsin; 5%) was 208344 and the Undigested (trypsin; 5%) was 4502764. For the same compound, the Digested (trypsin; 10%) was 95904, the Peptide (trypsin; 10%) was 39996 and the Undigested (trypsin; 10%) was 5112793. The Digested (trypsin; 15%) was 40955, the Peptide (trypsin; 15%) was 18047 and the Undigested (trypsin; 15%) was 5055881. The Digested (trypsin; 20%) was 26014, the Peptide (trypsin; 20%) was 9756 and the Undigested (trypsin; 20%) was 5626809.
`NC(CO)(CO)CO` [Tris] showed a Digested (porcine trypsin; 0.05M) of 1995427, a Peptide (porcine trypsin; 0.05M) of 860551 and an Undigested (porcine trypsin; 0.05M) of 3125626. For the same compound, the Digested (porcine trypsin; 0.1M) was 2524942, the Peptide (porcine trypsin; 0.1M) was 1101647 and the Undigested (porcine trypsin; 0.1M) was 2122289. The Digested (porcine trypsin; 0.25M) was 3462464, the Peptide (porcine trypsin; 0.25M) was 1564913 and the Undigested (porcine trypsin; 0.25M) was 997441. For the same compound, the Digested (porcine trypsin; 0.5M) was 3218135, the Peptide (porcine trypsin; 0.5M) was 1297337 and the Undigested (porcine trypsin; 0.5M) was 780101. It also gave a Digested (porcine trypsin; 1M) of 3458079, a Peptide (porcine trypsin; 1M) of 1431917 and an Undigested (porcine trypsin; 1M) of 1156801. The Digested (trypsin; 0.05M) was 2479332, the Undigested (trypsin; 0.05M) was 893529 and the Digested (trypsin; 0.1M) was 2540889. The Undigested (trypsin; 0.1M) was 990996, the Digested (trypsin; 0.25M) was 2440181 and the Undigested (trypsin; 0.25M) was 1291934. For the same compound, the Digested (trypsin; 0.5M) was 2205308, the Peptide (trypsin; 0.5M) was 879474 and the Undigested (trypsin; 0.5M) was 1490447. It also gave a Digested (trypsin; 1M) of 1923103, a Peptide (trypsin; 1M) of 745060 and an Undigested (trypsin; 1M) of 2177969.
